According to ChEMBL document CHEMBL1201862, “PubChem BioAssay data set” (2004):
Active and inactive are the calls of the source.

Assays:
[1] = target: Cytochrome P450 2C9 (Homo sapiens, UniProt P11712)
[2] = target: T1, Sentrin-specific protease 1 (Homo sapiens, UniProt Q9P0U3); experiment: SENP1 catalytic domain blockers, concentration series – biochemical, kinetic FRET, dose response (AID 651697); assay type: functional; conditions: read-out: IC50_Mean
T1 sequence (Q9P0U3 whole entry): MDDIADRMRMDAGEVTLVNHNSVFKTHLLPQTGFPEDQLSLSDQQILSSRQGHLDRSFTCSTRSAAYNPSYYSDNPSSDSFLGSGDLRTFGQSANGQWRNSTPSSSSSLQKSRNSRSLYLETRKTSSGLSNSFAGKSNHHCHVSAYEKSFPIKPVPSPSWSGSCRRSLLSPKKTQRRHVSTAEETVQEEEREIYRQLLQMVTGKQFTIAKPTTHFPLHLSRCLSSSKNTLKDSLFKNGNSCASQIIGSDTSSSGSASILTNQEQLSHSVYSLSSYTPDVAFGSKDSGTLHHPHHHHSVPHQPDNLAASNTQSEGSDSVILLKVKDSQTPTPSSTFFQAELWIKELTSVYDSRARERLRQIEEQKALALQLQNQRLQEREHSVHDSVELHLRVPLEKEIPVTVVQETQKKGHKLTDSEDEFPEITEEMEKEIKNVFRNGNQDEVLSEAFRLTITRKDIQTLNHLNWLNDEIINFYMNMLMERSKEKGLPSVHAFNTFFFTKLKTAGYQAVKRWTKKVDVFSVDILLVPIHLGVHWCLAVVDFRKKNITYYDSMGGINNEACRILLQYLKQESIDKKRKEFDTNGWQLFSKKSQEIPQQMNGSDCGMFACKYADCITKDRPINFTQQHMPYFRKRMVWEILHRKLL

[3] = target: Cytochrome P450 2D6 (Homo sapiens, UniProt P10635);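 also: CYP2D6 member of a cytochrome P450 panel assay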
Chain of Cytochrome P450 2D6 (P10635 whole entry, the tested form may be a part): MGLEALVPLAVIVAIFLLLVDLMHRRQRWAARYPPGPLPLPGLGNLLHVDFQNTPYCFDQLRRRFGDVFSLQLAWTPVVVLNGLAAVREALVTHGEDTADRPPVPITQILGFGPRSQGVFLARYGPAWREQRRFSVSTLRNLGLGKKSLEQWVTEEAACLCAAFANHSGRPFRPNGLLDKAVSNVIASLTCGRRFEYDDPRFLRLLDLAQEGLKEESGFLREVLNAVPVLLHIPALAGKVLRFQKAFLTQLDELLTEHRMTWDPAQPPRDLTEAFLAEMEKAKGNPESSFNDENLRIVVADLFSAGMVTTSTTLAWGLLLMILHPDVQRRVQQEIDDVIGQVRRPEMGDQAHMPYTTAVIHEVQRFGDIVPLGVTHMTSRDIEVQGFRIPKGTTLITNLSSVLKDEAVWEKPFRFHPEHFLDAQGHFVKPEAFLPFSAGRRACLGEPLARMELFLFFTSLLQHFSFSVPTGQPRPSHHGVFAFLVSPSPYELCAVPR

[4] = target: T1, Sentrin-specific protease 1; experiment: Dose response confirmation of small molecule inhibitors of the catalytic domain of the SUMO protease, SENP1 in a FRET assay.; assay type: functional; conditions: read-out: IC50_Mean
[5] = target: Cytochrome P450 2C19 (Homo sapiens, UniProt P33261); experiment: Cytochrome panel assay with activity outcomes. Panel member name: p450-cyp2c19 Compounds with AC50 equal or less than 10 uM are considered active; assay type: functional; conditions: read-out: AC50
Chain of Cytochrome P450 2C19 (P33261 whole entry, the tested form may be a part): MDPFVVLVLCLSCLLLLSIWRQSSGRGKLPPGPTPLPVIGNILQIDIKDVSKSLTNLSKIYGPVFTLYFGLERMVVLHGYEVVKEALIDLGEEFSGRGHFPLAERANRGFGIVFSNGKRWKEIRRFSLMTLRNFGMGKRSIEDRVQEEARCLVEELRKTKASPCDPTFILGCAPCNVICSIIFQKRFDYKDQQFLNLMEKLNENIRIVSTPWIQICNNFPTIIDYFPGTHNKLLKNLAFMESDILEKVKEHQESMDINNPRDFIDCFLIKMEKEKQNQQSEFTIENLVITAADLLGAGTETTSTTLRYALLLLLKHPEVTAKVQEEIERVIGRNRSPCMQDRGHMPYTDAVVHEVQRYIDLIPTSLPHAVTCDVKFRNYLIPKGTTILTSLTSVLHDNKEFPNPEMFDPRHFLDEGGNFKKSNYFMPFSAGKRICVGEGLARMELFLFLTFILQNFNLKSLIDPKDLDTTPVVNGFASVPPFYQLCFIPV

[6] = off-target signal loss in HeLa-CEM21 co-culture – HeLa F-luc CTL cells, cherry-picked, counter-screen for HIV-1 Env fusion inhibitor project, dose response (AID 652040); assay type: functional, cell-based;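 also: potency for signal decrease marking cytotoxic or nonspecific inhibition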
[7] = blockers of HIV-1 ZM109 envelope-driven cell-cell fusion – HeLa effector, CEM target cells, luciferase, cherry-pick, dose response (AID 652058); assay type: functional, cell-based;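 also: luciferase signal from HIV-1 Env mediated cell-cell fusion of effector and target cells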
[8] = tested on: HEK293; experiment: cells; conditions: Homo sapiens
[9] = blockers of HIV-1 envelope-mediated cell-cell fusion – cherry-pick, dose response (AID 652057); assay type: functional, cell-based
[10] = HIV-1 AD8 envelope cell-cell fusion blockers – cherry-pick, dose response (AID 652062); assay type: functional, cell-based;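 also: luciferase signal from cell-cell fusion driven by HIV-1 clade B AD8 Env; potency is for inhibitors of fusion seen as a drop in luminescence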
[11] = tested on: HEK293; experiment: cells; conditions: Homo sapiens; remark: listed apart in the source
[12] = target: T2, Mannose-6-phosphate isomerase (Homo sapiens, UniProt P34949); experiment: MPI enzyme activity inhibition – biochemical, fluorescence intensity, coupled assay, primary screen (AID 1209)
T2 sequence (P34949 whole entry): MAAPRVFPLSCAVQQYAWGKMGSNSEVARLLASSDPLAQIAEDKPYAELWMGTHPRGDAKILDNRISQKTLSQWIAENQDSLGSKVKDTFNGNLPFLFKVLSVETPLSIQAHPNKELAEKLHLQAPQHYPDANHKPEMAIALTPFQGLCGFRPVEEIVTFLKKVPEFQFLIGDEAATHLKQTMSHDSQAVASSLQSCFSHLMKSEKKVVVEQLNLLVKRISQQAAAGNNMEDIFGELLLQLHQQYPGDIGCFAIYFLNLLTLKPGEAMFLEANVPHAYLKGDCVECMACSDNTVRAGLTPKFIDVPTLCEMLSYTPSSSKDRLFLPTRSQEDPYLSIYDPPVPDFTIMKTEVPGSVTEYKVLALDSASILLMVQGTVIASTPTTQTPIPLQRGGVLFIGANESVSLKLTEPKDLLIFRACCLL

[13] = target: DNA dC->dU-editing enzyme APOBEC-3A (Homo sapiens, UniProt P31941); experiment: A3A deaminase inhibition for selectivity – biochemical, dose response (AID 504722); assay type: functional
Chain of DNA dC->dU-editing enzyme APOBEC-3A (P31941 whole entry): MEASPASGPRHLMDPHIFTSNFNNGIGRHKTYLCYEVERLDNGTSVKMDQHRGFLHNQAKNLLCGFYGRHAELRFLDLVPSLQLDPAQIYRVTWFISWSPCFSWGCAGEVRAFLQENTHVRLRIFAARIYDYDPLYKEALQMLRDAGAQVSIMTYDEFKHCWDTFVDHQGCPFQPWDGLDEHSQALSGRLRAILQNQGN

[14] = THP-1 cell cytotoxicity, dose response, cytotoxicity control for non-replicating M. tuberculosis project (AID 489025); assay type: functional
[15] = target: T2, Mannose-6-phosphate isomerase; experiment: phosphomannose isomerase inhibition – biochemical, fluorescence intensity, confirmation (AID 1535)
[16] = target: Glucose-6-phosphate 1-dehydrogenase (Homo sapiens, UniProt P11413); experiment: inhibition of Homo sapiens G6PD, dose series – biochemical, fluorescence, selectivity assay for P. falciparum G6PD inhibitor project, dose response (AID 504792); assay type: functional
Chain of Glucose-6-phosphate 1-dehydrogenase (P11413 whole entry): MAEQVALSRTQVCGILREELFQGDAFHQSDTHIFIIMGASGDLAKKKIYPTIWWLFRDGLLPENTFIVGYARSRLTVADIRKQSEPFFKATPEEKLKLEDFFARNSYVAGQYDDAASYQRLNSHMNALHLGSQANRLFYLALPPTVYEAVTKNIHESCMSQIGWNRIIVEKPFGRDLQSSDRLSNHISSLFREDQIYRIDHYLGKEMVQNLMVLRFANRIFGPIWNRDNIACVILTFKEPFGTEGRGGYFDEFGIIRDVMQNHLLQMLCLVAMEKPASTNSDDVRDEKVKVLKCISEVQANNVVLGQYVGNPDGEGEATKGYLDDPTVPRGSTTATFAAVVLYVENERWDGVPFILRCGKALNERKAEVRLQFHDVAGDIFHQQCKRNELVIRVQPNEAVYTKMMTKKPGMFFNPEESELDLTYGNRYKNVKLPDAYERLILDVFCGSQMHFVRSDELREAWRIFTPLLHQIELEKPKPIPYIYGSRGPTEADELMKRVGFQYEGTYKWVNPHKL

[17] = target: Large T antigen (Simian virus 40, UniProt P03070); assay type: functional, Betapolyomavirus macacae;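 also: Confirmatory-stage PubChem screen for compounds that inhibit SV40 T antigen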
Chain of Large T antigen (P03070 whole entry): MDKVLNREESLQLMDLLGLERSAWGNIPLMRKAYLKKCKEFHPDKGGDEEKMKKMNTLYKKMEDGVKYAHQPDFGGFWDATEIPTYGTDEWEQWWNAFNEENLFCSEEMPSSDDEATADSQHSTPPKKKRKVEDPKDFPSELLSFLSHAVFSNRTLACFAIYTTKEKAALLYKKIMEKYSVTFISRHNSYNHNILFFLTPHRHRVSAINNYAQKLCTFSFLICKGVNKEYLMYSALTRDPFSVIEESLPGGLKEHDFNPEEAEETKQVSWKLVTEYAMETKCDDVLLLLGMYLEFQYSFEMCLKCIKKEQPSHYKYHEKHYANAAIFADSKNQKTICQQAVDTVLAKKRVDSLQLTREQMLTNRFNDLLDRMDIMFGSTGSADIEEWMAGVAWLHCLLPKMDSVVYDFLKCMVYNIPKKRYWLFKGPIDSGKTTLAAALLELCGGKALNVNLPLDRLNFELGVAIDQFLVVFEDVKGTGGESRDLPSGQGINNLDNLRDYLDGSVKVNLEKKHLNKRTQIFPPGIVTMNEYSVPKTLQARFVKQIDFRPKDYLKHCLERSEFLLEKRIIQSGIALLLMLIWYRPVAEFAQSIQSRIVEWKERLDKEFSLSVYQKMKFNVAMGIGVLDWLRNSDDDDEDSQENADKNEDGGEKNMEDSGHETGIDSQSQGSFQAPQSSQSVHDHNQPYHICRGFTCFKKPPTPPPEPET

[18] = target: Phosphomannomutase 2 (Homo sapiens, UniProt O15305); experiment: Counter screen SAR assay for PMM2 inhibitors via a fluorescence intensity assay. [Related pubchem assays (depositor defined):AID1545, AID1574]
Chain of Phosphomannomutase 2 (O15305 whole entry): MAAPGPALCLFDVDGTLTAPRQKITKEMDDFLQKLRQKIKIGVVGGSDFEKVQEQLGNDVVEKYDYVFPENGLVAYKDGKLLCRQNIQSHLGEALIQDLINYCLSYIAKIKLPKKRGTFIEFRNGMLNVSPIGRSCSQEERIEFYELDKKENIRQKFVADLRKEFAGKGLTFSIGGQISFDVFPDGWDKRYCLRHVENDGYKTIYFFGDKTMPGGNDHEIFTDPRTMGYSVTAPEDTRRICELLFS

[19] = target: T2, Mannose-6-phosphate isomerase; experiment: MPI inhibition at elevated mannose 6-phosphate – biochemical, fluorescence intensity, high mannose 6-phosphate, primary screen (AID 1220)
[20] = target: DNA dC->dU-editing enzyme APOBEC-3G (Homo sapiens, UniProt Q9HC16); experiment: Dose Response confirmation of small molecule APOBEC3G DNA Deaminase Inhibitors via a fluorescence-based single-stranded DNA deaminase assay. [Related pubchem assays (depositor defined):AID493012, AID493028]; assay type: functional
Chain of DNA dC->dU-editing enzyme APOBEC-3G (Q9HC16 whole entry): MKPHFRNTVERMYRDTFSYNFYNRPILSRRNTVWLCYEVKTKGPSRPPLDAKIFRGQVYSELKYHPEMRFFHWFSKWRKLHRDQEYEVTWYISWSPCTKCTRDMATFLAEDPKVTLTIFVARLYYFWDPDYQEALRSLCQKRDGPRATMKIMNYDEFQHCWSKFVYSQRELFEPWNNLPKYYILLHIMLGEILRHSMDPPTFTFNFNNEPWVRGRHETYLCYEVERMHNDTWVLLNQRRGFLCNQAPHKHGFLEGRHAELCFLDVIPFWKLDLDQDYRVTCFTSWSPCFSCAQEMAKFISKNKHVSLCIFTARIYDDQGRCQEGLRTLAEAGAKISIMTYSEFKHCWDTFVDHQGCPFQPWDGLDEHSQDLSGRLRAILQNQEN

Chain of Cytochrome P450 2C9 (P11712 whole entry, the tested form may be a part): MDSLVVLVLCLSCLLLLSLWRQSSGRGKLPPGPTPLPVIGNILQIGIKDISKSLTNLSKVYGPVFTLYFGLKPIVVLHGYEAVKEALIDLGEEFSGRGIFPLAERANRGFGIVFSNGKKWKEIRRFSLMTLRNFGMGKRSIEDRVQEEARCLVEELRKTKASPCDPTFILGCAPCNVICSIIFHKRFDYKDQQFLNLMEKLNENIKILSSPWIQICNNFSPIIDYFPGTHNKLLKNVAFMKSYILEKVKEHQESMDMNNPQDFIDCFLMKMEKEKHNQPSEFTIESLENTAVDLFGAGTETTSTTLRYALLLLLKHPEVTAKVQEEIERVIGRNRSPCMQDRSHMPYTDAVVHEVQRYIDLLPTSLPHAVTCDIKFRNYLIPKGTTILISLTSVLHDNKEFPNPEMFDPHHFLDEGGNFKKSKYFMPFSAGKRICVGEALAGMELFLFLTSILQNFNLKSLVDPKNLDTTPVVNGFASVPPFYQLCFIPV

Compound: CCOc1ccc(/C=C/C(=O)Nc2ccc(OC)cc2[N+](=O)[O-])cc1
- AC50 [1]: inconclusive
- IC50 [2]: 6.32 µM (active)
- AC50 [3]: inconclusive
- IC50 [4]: 5.84 µM (active)
- AC50 [5]: 39.8 µM (inconclusive)

Compound: CCN(C[C@H]1N[C@@](CC)(C(=O)OC)[C@H]2C(=O)N(Cc3ccccc3)C(=O)[C@@H]12)S(=O)(=O)c1ccc(OC)cc1
- AC50 [6]: 1.89 µM (active)
- AC50 [7]: 3.76 µM (active)
- EC50 [8]: > 59.6 µM (inactive)
- AC50 [9]: 1.64 µM (active)
- AC50 [10]: 7.2 µM (active)
- EC50 [11]: > 59.6 µM (inactive)

Compound: CCCCSc1nc2c(=S)n(C)c(=O)n(C)c2[nH]1
- EC50 [8]: > 59.5 µM (inactive)
- EC50 [11]: > 59.5 µM (inactive)

Compound: Cc1ccnc(-n2sc3ccccc3c2=O)n1
- IC50 [12]: 11.2 µM (active)
- IC50 [13]: > 100 µM (inactive)
- CC50 [14]: > 40 µM (active)
- IC50 [15]: 4.43 µM (active)
- IC50 [16]: 36.1 µM (inactive)
- IC50 [17]: 12.5 µM (active)
- IC50 [18]: 65.9 µM (active)
- IC50 [19]: 17.8 µM (active)
- IC50 [20]: 15.4 µM (active)
